Type in all cases: in vivo
In assay [1] the test system is corn earworm (CEW; Helicoverpa zea). The assay can be described thus: Insecticidal test for corn earworm, 128-well diet tray assay. To be noted: 144 h, 50 μg/cm2 on artificial diet, second instar larvae, six days at 25° C. The method, boiled down: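 Second-instar H. zea larvae, three to five per well, on artificial diet surface-treated with 50 μg/cm^2 compound (90:10 acetone-water, dried), eight wells per compound. Held 6 days at 25° C, 14:10 light-dark; percent mortality averaged over wells.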

Assay [2] deals with green peach aphid (Myzus persicae). The assay can be described thus: Insecticidal test for green peach aphid in foliar spray assay. To be noted: 72 h, 200 ppm foliar spray on cabbage seedlings, graded after three days, Abbott corrected % control, read-out: Mortality GPA 200 ppm. As for the experimental part:
Cabbage seedlings grown in 3-inch pots, with 2-3 small (3-5 cm) true leaves, were used as test substrate. The seedlings were infested with 20-50 green peach aphids (wingless adult and nymph) one day prior to chemical application. Four pots with individual seedlings were used for each treatment. Compounds (2 mg) were dissolved in 2 mL of acetone/methanol (1:1) solvent, forming stock solutions of 1000 ppm. The stock solutions were diluted 5× with 0.025% Tween 20 in H2O to obtain the test solution at 200 ppm. A hand-held Devilbiss sprayer was used for spraying a solution to both sides of cabbage leaves until runoff. Reference plants (solvent check) were sprayed with the diluent only. Treated plants were held in a holding room for three days at approximately 25° C. and 40% relative humidity (RH) prior to grading. Evaluation was conducted by counting the number of live aphids per plant under a microscope. Insecticidal activity data, measured by using Abbott's correction formula, are presented in Table 2: Corrected % Control=100*(X−Y)/X • where X=No. of live aphids on solvent check plants • Y=No. of live aphids on treated plants

In assay [3] the test system is beet armyworm (BAW; Spodoptera exigua). The assay can be described thus: Insecticidal test for beet armyworm, 128-well diet tray assay. Particulars: 144 h, 50 μg/cm2 on artificial diet, second instar larvae, six days at 25° C. Summed up: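 Second-instar larvae, three to five per well, fed on artificial diet surface-treated with 50 μg/cm^2 compound (applied in 90:10 acetone-water, dried). Held 6 days at 25 °C, 14:10 light-dark; percent mortality scored per well and averaged over eight wells.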

In the case of `COc1ccc(NC(=S)N/N=C/c2ccc(-c3ncn(-c4ccc(OC(F)(F)F)cc4)n3)cc2)c(F)c1` [Compound 50], the mortality at 50 µg/cm2 in assay [1] and in assay [3] was 50 to 100% throughout. Further, in assay [2], the mortality at 200 ppm was less than 80%.
In the case of `FC(F)(F)Oc1ccc(-n2cnc(-c3ccc(/C=N/NC(=S)NCc4ccc(Cl)cc4)cc3)n2)cc1` [Compound 34], the mortality at 50 µg/cm2 in assay [1] and in assay [3] was 50 to 100% throughout. The mortality at 200 ppm in assay [2] was less than 80%.
Regarding `FC(F)(F)Oc1ccc(-n2cnc(-c3ccc(/C=N/NC(=S)Nc4c(Cl)cccc4Cl)cc3)c2)cc1` [Compound 68], the mortality at 50 µg/cm2 in assay [1] and in assay [3] was 50 to 100% throughout. For the same compound, the mortality at 200 ppm in assay [2] was less than 80%.
Take `CN(C)c1cccc(CNC(=S)N/N=C/c2ccc(-c3ncn(-c4ccc(OC(F)(F)F)cc4)n3)cc2)c1` [Compound 38]: the mortality at 50 µg/cm2 in assay [1] and in assay [3] was 50 to 100% each time. Further, the mortality at 200 ppm in assay [2] is less than 80%.
For `O=C(N/N=C/c1ccc(-c2ncn(-c3ccc(OC(F)(F)F)cc3)n2)cc1)Nc1ccc(F)cc1` [Compound 35], the mortality at 50 µg/cm2 in assay [1] and in assay [3] was less than 50% each time. For the same compound, the mortality at 200 ppm in assay [2] was less than 80%.
`CCOC(=O)CNC(=S)N/N=C/c1ccc(-c2ncn(-c3ccc(OC(F)(F)F)cc3)n2)cc1` [Compound 30]: the mortality at 50 µg/cm2 in assay [1] and in assay [3] was 50 to 100% each time. Besides, in assay [2], the mortality at 200 ppm was less than 80%.
On to `Cc1cccc(C)c1NC(=S)N/N=C/c1ccc(-c2ncn(-c3ccc(OC(F)(F)C(F)(F)F)cc3)n2)cc1` [Compound 97], for which the mortality at 50 µg/cm2 in assay [1] and in assay [3] was 50 to 100% throughout. Also, in assay [2], the mortality at 200 ppm was less than 80%.
For `CN(C)S(=O)(=O)c1ccccc1NC(=S)N/N=C/c1ccc(-c2ncn(-c3ccc(OC(F)(F)F)cc3)n2)cc1` [Compound 77], the mortality at 50 µg/cm2 in assay [1] and in assay [3] was 50 to 100% in each case. For the same compound, the mortality at 200 ppm in assay [2] is less than 80%.
On to `COc1cc(C)c(NC(=S)N/N=C(\C)c2ccc(-c3ncn(-c4ccc(OC(F)(F)F)cc4)n3)cc2)c(C)c1` [Compound 125], for which the mortality at 50 µg/cm2 in assay [1] and in assay [3] was 50 to 100% each time. Also, in assay [2], the mortality at 200 ppm was less than 80%.
Regarding `FC(F)(F)Oc1ccc(-n2cnc(-c3ccc(/C=N/NC(=S)Nc4ccccc4)cc3)n2)cc1` [Compound 14], the mortality at 50 µg/cm2 in assay [1] and in assay [3] was 50 to 100% throughout. Also, the mortality at 200 ppm in assay [2] is less than 80%.
On to `COc1ccc(NC(=S)N/N=C/c2ccc(-c3ncn(-c4ccc(OC(F)(F)F)cc4)n3)cc2)c(C)c1` [Compound 46], for which the mortality at 50 µg/cm2 in assay [1] and in assay [3] was 50 to 100% in each case. For the same compound, the mortality at 200 ppm in assay [2] is less than 80%.
Take `FC(F)(F)C(F)(F)Oc1ccc(-n2cnc(-c3ccc(/C=N/NC(=S)NCCc4ccccn4)cc3)n2)cc1` [Compound 9]: the mortality at 50 µg/cm2 in assay [1] and in assay [3] was 50 to 100% in each case. The mortality at 200 ppm in assay [2] was less than 80%.
For the compound `CNc1ccc(NC(=S)N/N=C/c2ccc(-c3ncn(-c4ccc(OC(F)(F)F)cc4)n3)cc2)cc1` [Compound 42], the mortality at 50 µg/cm2 in assay [1] and in assay [3] was 50 to 100% throughout. In assay [2], the mortality at 200 ppm was less than 80%.
`CCc1ccccc1NC(=S)N/N=C/c1ccc(-c2ncn(-c3ccc(OC(F)(F)F)cc3)n2)cc1` [Compound 62]: the mortality at 50 µg/cm2 in assay [1] and in assay [3] was 50 to 100% each time. Further, the mortality at 200 ppm in assay [2] was less than 80%.
Regarding `CN(C)c1ccc(CNC(=S)N/N=C/c2ccc(-c3ncn(-c4ccc(OC(F)(F)F)cc4)n3)cc2)cc1` [Compound 37], the mortality at 50 µg/cm2 in assay [1] and in assay [3] was 50 to 100% throughout. The mortality at 200 ppm in assay [2] was less than 80%.
As to `CC(=O)N(C)c1ccc(NC(=S)N/N=C/c2ccc(-c3ncn(-c4ccc(OC(F)(F)F)cc4)n3)cc2)cc1` [Compound 40], the mortality at 50 µg/cm2 in assay [1] and in assay [3] was 50 to 100% each time. For the same compound, the mortality at 200 ppm in assay [2] is less than 80%.
`CN(C)c1ncc(NC(=S)N/N=C/c2ccc(-c3ncn(-c4ccc(OC(F)(F)F)cc4)n3)cc2)cn1` [Compound 43]: the mortality at 50 µg/cm2 in assay [1] and in assay [3] was 50 to 100% each time. Besides, the mortality at 200 ppm in assay [2] is less than 80%.
As to `COc1cccc(OC)c1NC(=S)N/N=C/c1ccc(-c2ncn(-c3ccc(OC(F)(F)F)cc3)n2)cc1` [Compound 57], the mortality at 50 µg/cm2 in assay [1] and in assay [3] was 50 to 100% in each case. Moreover, in assay [2], the mortality at 200 ppm was less than 80%.
In the case of `FC(F)(F)Oc1ccc(-n2cnc(-c3ccc(/C=N/NC(=S)Nc4ccc(C(F)(F)F)cc4)cc3)n2)cc1` [Compound 32], the mortality at 50 µg/cm2 in assay [1] and in assay [3] was less than 50% each time. For the same compound, in assay [2], the mortality at 200 ppm was less than 80%.
As for `CN(C)c1ccc(NC(=S)N/N=C/c2ccc(-c3ncn(-c4ccc(OC(F)(F)F)cc4)n3)cc2)cc1` [Compound 1], the mortality at 50 µg/cm2 in assay [1] and in assay [3] was 50 to 100% throughout. Also, the mortality at 200 ppm in assay [2] is less than 80%.
Take `COCCNC(=S)N/N=C/c1ccc(-c2ncn(-c3ccc(OC(F)(F)F)cc3)n2)cc1` [Compound 18]: the mortality at 50 µg/cm2 in assay [1] and in assay [3] was 50 to 100% throughout. The mortality at 200 ppm in assay [2] is less than 80%.
Turning to `Cc1cccc(Cl)c1NC(=S)N/N=C/c1ccc(-c2ncn(-c3ccc(OC(F)(F)F)cc3)n2)cc1` [Compound 65], the mortality at 50 µg/cm2 in assay [1] and in assay [3] was 50 to 100% each time. The mortality at 200 ppm in assay [2] is less than 80%.
As for `FC(F)(F)Oc1ccc(-n2cnc(-c3ccc(/C=N/NC(=S)NCCC4=CCCCC4)cc3)n2)cc1` [Compound 20], the mortality at 50 µg/cm2 in assay [1] and in assay [3] was 50 to 100% each time. The mortality at 200 ppm in assay [2] was less than 80%.
As for `FC(F)(F)Oc1ccc(-n2cnc(-c3ccc(/C=N/NC(=S)Nc4ccccc4OC(F)(F)F)cc3)n2)cc1` [Compound 66], the mortality at 50 µg/cm2 in assay [1] and in assay [3] was 50 to 100% in each case. In assay [2], the mortality at 200 ppm is less than 80%.
On to `CN(C)C(=S)N/N=C/c1ccc(-c2ncn(-c3ccc(C(F)(F)F)cc3)n2)cc1` [Compound 8], for which the mortality at 50 µg/cm2 in assay [1] and in assay [3] was 50 to 100% each time. For the same compound, in assay [2], the mortality at 200 ppm was less than 80%.
With `COc1cccc(C)c1NC(=S)N/N=C/c1ccc(-c2ncn(-c3ccc(OC(F)(F)F)cc3)n2)cc1` [Compound 73], the mortality at 50 µg/cm2 in assay [1] and in assay [3] was 50 to 100% in each case. For the same compound, the mortality at 200 ppm in assay [2] is less than 80%.
In the case of `CN(C)c1cccc(NC(=S)N/N=C/c2ccc(-c3ncn(-c4ccc(OC(F)(F)F)cc4)n3)cc2)c1` [Compound 2, N-(3-(dimethylamino)phenyl)-2-(4-(1-(4-(trifluoromethoxy)phenyl)-1H-1,2,4-triazol-3-yl)benzylidene)hydrazinecarbothioamide], the mortality at 50 µg/cm2 in assay [1] and in assay [3] was 50 to 100% in each case. Besides, the mortality at 200 ppm in assay [2] is less than 80%.
For `CCCCCNC(=S)N/N=C/c1ccc(-c2ncn(-c3ccc(OC(F)(F)F)cc3)n2)cc1` [Compound 24], the mortality at 50 µg/cm2 in assay [1] is less than 50%; in assay [3] it was 50 to 100%. Further, the mortality at 200 ppm in assay [2] was less than 80%.
The matching figures for `COc1ccc(NC(=S)N/N=C/c2ccc(-n3cnc(-c4ccc(C(F)(F)F)cc4)c3)cc2)cc1` [Compound 69]: 50 to 100%, 50 to 100% and less than 80%.
`CC(=O)Nc1ccc(NC(=S)N/N=C/c2ccc(-c3ncn(-c4ccc(OC(F)(F)F)cc4)n3)cc2)cc1` [Compound 41]: the mortality at 50 µg/cm2 in assay [1] and in assay [3] was 50 to 100% each time. In addition, the mortality at 200 ppm in assay [2] is less than 80%.
For `FC(F)(F)Oc1ccc(NC(=S)N/N=C/c2ccc(-c3ncn(-c4ccc(OC(F)(F)F)cc4)n3)cc2)cc1` [Compound 26], the mortality at 50 µg/cm2 in assay [1] and in assay [3] was 50 to 100% throughout. In addition, the mortality at 200 ppm in assay [2] is less than 80%.
With `COc1ccc(NC(=S)N/N=C/c2ccc(-c3ncn(-c4ccc(OC(F)(F)F)cc4)n3)cc2)c(C(F)(F)F)c1` [Compound 51], the mortality at 50 µg/cm2 in assay [1] and in assay [3] was 50 to 100% throughout. Moreover, the mortality at 200 ppm in assay [2] is less than 80%.
Regarding `COc1cc(C)c(NC(=S)N/N=C/c2ccc(-c3ncn(-c4ccc(C(F)(F)F)cc4)n3)cc2)c(C)c1` [Compound 127], the mortality at 50 µg/cm2 in assay [1] and in assay [3] was 50 to 100% in each case. Moreover, in assay [2], the mortality at 200 ppm was less than 80%.
Turning to `FC(F)(F)Oc1ccc(-n2cnc(-c3ccc(/C=N/NC(=S)Nc4c(Cl)cccc4Cl)cc3)n2)cc1` [Compound 29], the mortality at 50 µg/cm2 in assay [1] and in assay [3] was 50 to 100% throughout. Further, the mortality at 200 ppm in assay [2] was less than 80%.

In general, mortality refers to the share of the test organisms that died.

The values are drawn from patent US8680269B2, “Pesticidal compositions” (Dow AgroSciences, LLC., priority 2009, dated 2014).
